These results are taken from US12459922B2 (Gilead Sciences, Inc., priority 2022, dated 2025).

Structures are written as SMILES.

This assay deals with endogenous cellular STAT1 (phosphorylated at Tyr701) in NCI-H1373 cells. As to the kind of experiment: Phospho-STAT1 (Tyr701) LANCE Ultra TR-FRET Detection Assay. The following applies: Homo sapiens, NCI-H1373, 48 h, phospho-STAT1 (Tyr701) induction, read-out: NH1373 pSTAT1 EC50. In kind it is cell-based. (Time-resolved FRET reads energy transfer from a long-lived donor to a nearby acceptor.)
Consider `C[C@@H](CCCn1ccc2cc(-c3ncc(C#N)c(N)n3)c(F)cc2c1=O)Nc1cn[nH]c(=O)c1C(F)(F)F` [Example 101, 4-amino-2-[7-fluoro-1-oxo-2-[(4S)-4-[[6-oxo-5-(trifluoromethyl)-1H-pyridazin-4-yl]amino]pentyl]-6-isoquinolyl]pyrimidine-5-carbonitrile], for which the EC50 is 12.6 nM.
`C[C@@H](CCCn1ccc2cc(-c3nc(N4CCOCC4)c4sccc4n3)c(F)cc2c1=O)Nc1cn[nH]c(=O)c1C(F)(F)F` [Example 298, (S)-7-fluoro-6-(4-morpholinothieno[3,2-d]pyrimidin-2-yl)-2-(4-((6-oxo-5-(trifluoromethyl)-1,6-dihydropyridazin-4-yl)amino)pentyl)isoquinolin-1(2H)-one]: the EC50 came out at 32 nM.
Consider `O=c1[nH]ncc(N[C@H](CCCn2ccc3cc(-c4ncc(C(F)(F)F)cn4)c(F)cc3c2=O)CCOC(F)F)c1C(F)(F)F` [Example 466, 2-[(4R)-6-(difluoromethoxy)-4-[[6-oxo-5-(trifluoromethyl)-1H-pyridazin-4-yl]amino]hexyl]-7-fluoro-6-[5-(trifluoromethyl)pyrimidin-2-yl]isoquinolin-1-one], for which the EC50 turned out to be 6.52 nM.
For `CC[C@@H](CCCn1cnc2cc(-c3cnc(C(F)F)cn3)c(F)cc2c1=O)Nc1cn[nH]c(=O)c1C(F)(F)F` [Example 346, (S)-7-(5-(difluoromethyl)pyrazin-2-yl)-6-fluoro-3-(4-((6-oxo-5-(trifluoromethyl)-1,6-dihydropyridazin-4-yl)amino)hexyl)quinazolin-4(3H)-one], the EC50 was 187 nM.
The figure for `COc1cnc(-c2cc3ccn(CCC[C@@H]4C[C@@H](C)CN4c4cn[nH]c(=O)c4C(F)(F)F)c(=O)c3cc2F)nc1N` [Example 175, 6-(4-amino-5-methoxypyrimidin-2-yl)-7-fluoro-2-[3-[(2R,4R)-4-methyl-1-[6-oxo-5-(trifluoromethyl)-1H-pyridazin-4-yl]pyrrolidin-2-yl]propyl]isoquinolin-1-one] is 57.5 nM; for `C[C@@H](CCCn1ccc2cc(-c3cn4ccnc4c(N)n3)c(F)cc2c1=O)Nc1cn[nH]c(=O)c1C(F)(F)F` [Example 332, (S)-6-(8-aminoimidazo[1,2-a]pyrazin-6-yl)-7-fluoro-2-(4-((6-oxo-5-(trifluoromethyl)-1,6-dihydropyridazin-4-yl)amino)pentyl)isoquinolin-1(2H)-one] it is 8.92 nM.
Consider `C[C@@H](CCCn1cnc2cc(-c3nc(N)c4ccccc4n3)c(F)cc2c1=O)Nc1cn[nH]c(=O)c1C(F)(F)F` [Example 354, (S)-4-amino-6'-fluoro-3'-(4-((6-oxo-5-(trifluoromethyl)-1,6-dihydropyridazin-4-yl)amino)pentyl)-[2,7'-biquinazolin]-4'(3'H)-one], for which the EC50 turned out to be 65.1 nM.
Consider `O=c1[nH]ncc(N[C@H]2CCC[C@@H](Cn3ccc4cc(-c5nc6ccccn6n5)c(F)cc4c3=O)C2)c1C(F)(F)F` [Example 488, 6-([1,2,4]triazolo[1,5-a]pyridin-2-yl)-7-fluoro-2-(((1R,3S)-3-((6-oxo-5-(trifluoromethyl)-1,6-dihydropyridazin-4-yl)amino)cyclohexyl)methyl)isoquinolin-1(2H)-one], for which the EC50 came out at 0.51 nM.
Consider `O=c1[nH]ncc(N[C@H](CCCn2ccc3cc(-c4ncc(C(F)(F)F)cn4)c(F)cc3c2=O)c2nnc(C(F)F)o2)c1C(F)(F)F` [Example 477, 2-[(4R)-4-[5-(difluoromethyl)-1,3,4-oxadiazol-2-yl]-4-[[6-oxo-5-(trifluoromethyl)-1H-pyridazin-4-yl]amino]butyl]-7-fluoro-6-[5-(trifluoromethyl)pyrimidin-2-yl]isoquinolin-1-one], for which the EC50 was 18.4 nM.
In the case of `C[C@@H](CCCn1ccc2cc(-c3ncc(C(F)(F)F)c(N4CC(C)(O)C4)n3)c(F)cc2c1=O)Nc1cn[nH]c(=O)c1C(F)(F)F` [Example 191, (S)-7-fluoro-6-(4-(3-hydroxy-3-methylazetidin-1-yl)-5-(trifluoromethyl)pyrimidin-2-yl)-2-(4-((6-oxo-5-(trifluoromethyl)-1,6-dihydropyridazin-4-yl)amino)pentyl)isoquinolin-1(2H)-one], the EC50 is 26.9 nM.

For orientation: EC50 means the concentration at which the effect is half-maximal.
